Laboratory results reported in patent US20190292167A1, “HETEROAROMATIC COMPOUNDS USEFUL FOR THE TREATMENT OF PROLIFERATIVE DISEASES” (Syros Pharmaceuticals, Inc., priority 2013, published 2019).
Counter-ions that a name gives are not always drawn. Like-named read-outs stand apart in the source and are kept apart here.

Assays:
CDK7 = target: T1, CDK7 (Homo sapiens, UniProt P50613); test: Adapta kinase assay (Life Technologies) against CDK7, co-factors cyclin H and MNAT1; assay type: biochemical; settings: read-out: CDK7 Inhibition
T1 construct: purchased Life Technologies (Adapta kinase assay service)
Procedure: Compounds of the invention were assayed for activity against CDK7 at Life Technologies™ (Grand Island, N.Y.) using their commercially available Adapta® kinase assay services. […] Details of the assay, including the substrate used for CDK7 kinase, are available on the Life Technologies web site (http://www.lifetechnologies.com/us/en/homellife-science/drug-discovery/target-and-lead-identification-and-validation/kinasebiology/kinase-activity-assays.html).
The co-factors used for the assay were cyclin H and MNAT1.

Jurkat = test: Inhibition of cell proliferation, CellTiter-Glo, 72 hour; assay type: cell-based; settings: Blood cancer cell line, 72 hour, read-out: Inhibition of Proliferation of Jurkat Cells
Procedure: The following cancer cell lines were tested with the media conditions indicated: […]

T1 sequence (P50613 whole entry): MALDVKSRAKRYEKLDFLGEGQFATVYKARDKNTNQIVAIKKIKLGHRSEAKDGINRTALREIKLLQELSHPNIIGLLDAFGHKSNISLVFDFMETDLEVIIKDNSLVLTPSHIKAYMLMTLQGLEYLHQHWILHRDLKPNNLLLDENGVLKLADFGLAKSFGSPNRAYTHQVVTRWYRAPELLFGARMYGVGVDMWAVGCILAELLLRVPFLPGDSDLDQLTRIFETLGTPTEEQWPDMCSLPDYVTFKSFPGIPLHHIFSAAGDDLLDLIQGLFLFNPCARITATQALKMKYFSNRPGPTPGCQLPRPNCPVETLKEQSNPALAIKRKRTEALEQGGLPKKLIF
T1 sequence (P51946 whole entry partner): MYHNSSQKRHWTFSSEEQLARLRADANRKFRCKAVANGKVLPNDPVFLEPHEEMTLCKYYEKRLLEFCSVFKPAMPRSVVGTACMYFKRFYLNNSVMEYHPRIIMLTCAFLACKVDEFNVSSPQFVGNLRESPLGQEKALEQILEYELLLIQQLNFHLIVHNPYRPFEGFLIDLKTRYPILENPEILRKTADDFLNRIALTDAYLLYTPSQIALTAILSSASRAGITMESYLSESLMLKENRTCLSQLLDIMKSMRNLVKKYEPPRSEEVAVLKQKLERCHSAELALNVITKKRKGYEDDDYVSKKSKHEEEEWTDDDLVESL
T1 sequence (P51948 whole entry partner): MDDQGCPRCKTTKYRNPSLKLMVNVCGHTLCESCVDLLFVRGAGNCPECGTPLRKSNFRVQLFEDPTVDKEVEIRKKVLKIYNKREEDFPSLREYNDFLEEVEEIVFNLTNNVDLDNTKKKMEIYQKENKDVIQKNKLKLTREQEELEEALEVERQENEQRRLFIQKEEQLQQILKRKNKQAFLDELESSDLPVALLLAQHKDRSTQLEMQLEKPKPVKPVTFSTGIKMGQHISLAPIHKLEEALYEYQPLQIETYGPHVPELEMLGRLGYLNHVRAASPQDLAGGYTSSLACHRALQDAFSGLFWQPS

IC50 (CDK7)	IC50 (Jurkat; Homo sapiens, Jurkat, 72 h)	IC50 (Jurkat)	Compound
100 to 1000 nM	> 5000 nM	–	CN(C)C/C=C/C(=O)Nc1ccc(C(=O)N2CCC(Nc3ncc(Cl)c(-c4c[nH]cn4)n3)CC2)cc1 [Compound 127, (E)-N-(4-(4-((5-chloro-4-(1H-imidazol-4-yl)pyrimidin-2-yl)amino)piperidine-1-carbonyl)phenyl)-4-(dimethylamino)but-2-enamide]
< 100 nM	< 500 nM	–	CN1CCN(C/C=C/C(=O)Nc2ccc(C(=O)N3CC[C@@H](Nc4ncc(C#N)c(-c5c[nH]c6ccccc56)n4)C3)cc2)CC1 [Compound 110, (E)-N-(4-((R)-3-(5-cyano-4-(1H-indol-3-yl)pyrimidin-2-ylamino)pyrrolidine-1-carbonyl)phenyl)-4-(4-methylpiperazin-1-yl)but-2-enamide]
100 to 1000 nM	500 to 5000 nM	–	N#Cc1cnc(NC2CCN(C(=O)c3ccc(N)cc3)CC2)nc1-c1c[nH]c2ccccc12 [Compound 26, 2-(1-(4-aminobenzoyl)piperidin-4-ylamino)-4-(1H-indol-3-yl)pyrimidine-5-carbonitrile]
100 to 1000 nM	> 5000 nM	–	Nc1ccc(C(=O)N2CC[C@H](Nc3ncc(Cl)c(-c4c[nH]c5ccccc45)n3)C2)cc1 [Compound 24, (4-aminophenyl)((S)-3-(5-chloro-4-(1H-indol-3-yl)pyrimidin-2-ylamino)pyrrolidin-1-yl)methanone]
< 100 nM	< 500 nM	–	C=CC(=O)Nc1ccc(CNC(=O)C2CC(Nc3ncc(Cl)c(-c4c[nH]c5ccccc45)n3)CN(C)C2)cc1 (racemic) [Compound 157, (+/−cis)-N-(4-acrylamidobenzyl)-5-((5-chloro-4-(1H-indol-3-yl)pyrimidin-2-yl)amino)-1-methylpiperidine-3-carboxamide]
< 100 nM	< 500 nM	–	C=CC(=O)Nc1ccc(CNC(=O)[C@H]2CNCC(Nc3ncc(Cl)c(-c4c[nH]c5ccccc45)n3)C2)cc1 (mixture of isomers) [Compound 151, (+/−trans)-N-(4-acrylamidobenzyl)-5-((5-chloro-4-(1H-indol-3-yl)pyrimidin-2-yl)amino)piperidine-3-carboxamide]
< 100 nM	500 to 5000 nM	–	NCCC(=O)Nc1cccc(Nc2ncc(Cl)c(-c3c[nH]c4ccccc34)n2)c1 [Compound 306, 3-amino-N-(3-(5-chloro-4-(1H-indol-3-yl)pyrimidin-2-ylamino)phenyl) propanamide.TFA]
100 to 1000 nM	500 to 5000 nM	–	COc1ccc(Cn2c(-c3ccc(NC(=O)/C=C/CN(C)C)cc3)nc3cc(Nc4ncc(Cl)c(-c5c[nH]c6ccccc56)n4)ccc32)cc1 [Compound 133, (E)-N-(4-(5-(5-chloro-4-(1H-indol-3-yl)pyrimidin-2-ylamino)-1-(4-methoxybenzyl)-1H-benzo[d]imidazol-2-yl)phenyl)-4-(dimethylamino)but-2-enamide]
< 100 nM	500 to 5000 nM	–	CN(C/C=C/C(=O)Nc1ccc(CN2CCC(Nc3ncc(Cl)c(-c4c[nH]c5ccccc45)n3)CC2)cc1)CC(=O)O [Compound 148, 2-[[(E)-4-[4-[[4-[[5-chloro-4-(1H-indol-3-yl)pyrimidin-2-yl]amino]-1-piperidyl]methyl]anilino]-4-oxo-but-2-enyl]-methyl-amino]acetic acid]
100 to 1000 nM	500 to 5000 nM	–	Cc1nc(C)c(-c2nc(N[C@H]3CC[C@@H](NC(=O)c4ccc(NC(=O)/C=C/CN(C)C)cc4)C3)ncc2Cl)s1 (racemic) [Compound 128, N-((1R,3S)-3-((5-chloro-4-(2,4-dimethylthiazol-5-yl)pyrimidin-2-yl)amino)cyclopentyl)-4-((E)-4-(dimethylamino)but-2-enamido)benzamide and N-((1S,3R)-3-((5-chloro-4-(2,4-dimethylthiazol-5-yl)pyrimidin-2-yl)amino)cyclopentyl)-4-((E)-4-(dimethylamino)but-2-enamido)benzamide]
< 100 nM	500 to 5000 nM	–	CN(C)C/C=C/C(=O)Nc1ccc(S(=O)(=O)N2CC[C@@H](Nc3ncc(Cl)c(-c4c[nH]c5ccccc45)n3)C2)cc1 [Compound 105, (E)-N-(4-((R)-3-(5-chloro-4-(1H-indol-3-yl)pyrimidin-2-ylamino)pyrrolidin-1-ylsulfonyl)phenyl)-4-(dimethylamino)but-2-enamide]
< 100 nM	< 500 nM	–	CN(C)C/C=C/C(=O)Nc1ccc(C(=O)N[C@@H]2CC[C@H](Nc3ncc(Cl)c(-c4c[nH]c5ccccc45)n3)C2)cc1 [Compound 129, N-((1R,3S)-3-((5-chloro-4-(1H-indol-3-yl)pyrimidin-2-yl)amino)cyclopentyl)-4-((E)-4-(dimethylamino)but-2-enamido)benzamide]
< 100 nM	< 500 nM	–	CN(C)C/C=C/C(=O)Nc1ccc(CN2CC[C@@H](Nc3ncc(Cl)c(-c4c[nH]c5ccccc45)n3)C2)cc1 [Compound 144, (R,E)-N-(4-((3-((5-chloro-4-(1H-indol-3-yl)pyrimidin-2-yl)amino)pyrrolidin-1-yl)methyl)phenyl)-4-(dimethylamino)but-2-enamide (E)-4-(dimethylamino)but-2-enoate]
100 to 1000 nM	500 to 5000 nM	–	Nc1ccc(CN2CCC(Nc3ncc(Cl)c(-c4c[nH]c5ccccc45)n3)CC2)cc1 [Compound 48, N-(1-(4-aminobenzyl)piperidin-4-yl)-5-chloro-4-(1H-indol-3-yl)pyrimidin-2-amine.HCl]
< 100 nM	< 500 nM	–	Cc1cc(C(=O)N2CCC(Nc3ncc(Cl)c(-c4c[nH]c5ccccc45)n3)CC2)ccc1NC(=O)/C=C/CN(C)C [Compound 113, (E)-N-(4-(4-(5-chloro-4-(1H-indol-3-yl)pyrimidin-2-ylamino)piperidine-1-carbonyl)-2-methylphenyl)-4-(dimethylamino)but-2-enamide]
< 100 nM	< 500 nM	–	N#Cc1cnc(N[C@@H]2CCN(C(=O)c3ccc(NC(=O)/C=C/CN4CCCC4)cc3)C2)nc1-c1c[nH]c2ccccc12 [Compound 108, (E)-N-(4-((R)-3-(5-cyano-4-(1H-indol-3-yl)pyrimidin-2-ylamino)pyrrolidine-1-carbonyl)phenyl)-4-(pyrrolidin-1-yl)but-2-enamide]
100 to 1000 nM	–	500 to 5000 nM	C=CC(=O)Nc1ccc(CNC(=O)[C@H]2C[C@H](Nc3ncc(Cl)c(-c4c[nH]c5ccccc45)n3)CN(C)C2)cc1 (relative stereo) [Compound 155, (+/−trans)-N-(4-acrylamidobenzyl)-5-((5-chloro-4-(1H-indol-3-yl)pyrimidin-2-yl)amino)-1-methylpiperidine-3-carboxamide]
100 to 1000 nM	500 to 5000 nM	–	C=CC(=O)Nc1ccc(C(=O)NC2CC3(C2)CC(Nc2ncc(Cl)c(-c4c[nH]c5ccccc45)n2)C3)cc1 (stereo not drawn) [Compound 138, 4-acrylamido-N-(6-((5-chloro-4-(1H-indol-3-yl)pyrimidin-2-yl)amino)spiro[3.3]heptan-2-yl)benzamide]
100 to 1000 nM	500 to 5000 nM	–	CN(C)C/C=C/C(=O)NCCC(=O)Nc1cccc(Nc2ncc(Cl)c(-c3c[nH]c4ccccc34)n2)c1 [Compound 131, (E)-N-(3-(3-(5-chloro-4-(1H-indol-3-yl)pyrimidin-2-ylamino)phenylamino)-3-oxopropyl)-4-(dimethylamino)but-2-enamide]
100 to 1000 nM	< 500 nM	–	CN(C)C/C=C/C(=O)Nc1ccc(C(=O)N[C@@H]2CC[C@H](Nc3ncc(Cl)c(-c4cccnc4)n3)C2)cc1 (racemic) [Compound 123, N-((1R,3S)-3-((5-chloro-4-(pyridin-3-yl)pyrimidin-2-yl)amino)cyclopentyl)-4-((E)-4-(dimethylamino)but-2-enamido)benzamide and N-((1S,3R)-3-((5-chloro-4-(pyridin-3-yl)pyrimidin-2-yl)amino)cyclopentyl)-4-((E)-4-(dimethylamino)but-2-enamido)benzamide]
< 100 nM	< 500 nM	–	Cc1cc(NC(=O)/C=C/CN(C)C)ccc1C(=O)N1CCC(Nc2ncc(Cl)c(-c3c[nH]c4ccccc34)n2)CC1 [Compound 114, (E)-N-(4-(4-(5-chloro-4-(1H-indol-3-yl)pyrimidin-2-ylamino)piperidine-1-carbonyl)-3-methylphenyl)-4-(dimethylamino)but-2-enamide]
> 1000 nM	–	> 5000 nM	CN(C)C/C=C/C(=O)Nc1ccc(C(=O)N[C@@H]2CC[C@H](Nc3ncc(Cl)c(-c4cc[nH]n4)n3)C2)cc1.CN(C)C/C=C/C(=O)Nc1ccc(C(=O)N[C@H]2CC[C@@H](Nc3ncc(Cl)c(-c4cc[nH]n4)n3)C2)cc1 (mixture of isomers) [Compound 124, N-((1R,3S)-3-((5-chloro-4-(1H-pyrazol-3-yl)pyrimidin-2-yl)amino)cyclopentyl)-4-((E)-4-(dimethylamino)but-2-enamido)benzamide and N-((1S,3R)-3-((5-chloro-4-(1H-pyrazol-3-yl)pyrimidin-2-yl)amino)cyclopentyl)-4-((E)-4-(dimethylamino)but-2-enamido)benzamide]

Compound	IC50 (CDK7)	IC50 (Jurkat; Homo sapiens, Jurkat, 72 h)	IC50 (Jurkat)
Nc1ccc(C(=O)N2[C@@H]3CC[C@H]2C[C@@H](Nc2ncc(Cl)c(-c4c[nH]c5ccccc45)n2)C3)cc1 [Compound 302, (4-aminophenyl)((1R,3R,5S)-3-(5-chloro-4-(1H-indol-3-yl)pyrimidin-2-ylamino)-8-aza-bicyclo[3.2.1]octan-8-yl)methanone]	> 1000 nM	500 to 5000 nM	–
CN(C)C/C=C/C(=O)Nc1ccc(C(=O)N2[C@@H]3CC[C@H]2C[C@@H](Nc2ncc(Cl)c(-c4c[nH]c5ccccc45)n2)C3)cc1 [Compound 116, ((1R,3R,5S)-3-(5-chloro-4-(1H-indol-3-yl)pyrimidin-2-ylamino)-8-aza-bicyclo[3.2.1]octan-8-yl)(4-((E)-N-4-(dimethylamino)but-2-enamide)phenyl)methanone]	100 to 1000 nM	500 to 5000 nM	–
